Assays:
Assay in all cases: relative viability (nuclei count vs DMSO), 5 days (fraction); higher = more cells survive
201T = test system: 201T
Outline: (§1)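 For relative viability, nuclei counts in treated wells were divided by those in vehicle wells. Lung cancer cell lines had been pin-tool dosed in 1536-well plates the day after seeding and cultured for 5 days, then fixed and stained in one step (final 0.05% Triton X-100, 1% formaldehyde, 1 ug/ml Hoechst) and imaged at 4×. Doses were one drug alone or a fixed anchor-drug dose plus five library-drug doses (not always all listed) in √10 steps, and values are duplicate-plate medians.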

A-427 = test system: A-427
Outline: as §1

ABC-1 = test system: ABC-1
Outline: as §1

BEN = test system: BEN
Outline: as §1

CAL-12T = test system: CAL-12T
Outline: as §1

H3255 = test system: H3255
Outline: as §1

LC-2-ad = test system: LC-2-ad
Outline: as §1

LCLC-97TM1 = test system: LCLC-97TM1
Outline: as §1

NCI-H1651 = test system: NCI-H1651
Outline: as §1

NCI-H1792 = test system: NCI-H1792
Outline: as §1

NCI-H1915 = test system: NCI-H1915
Outline: as §1

NCI-H1944 = test system: NCI-H1944
Outline: as §1

NCI-H2087 = test system: NCI-H2087
Outline: as §1

NCI-H441 = test system: NCI-H441
Outline: as §1

NCI-H460 = test system: NCI-H460
Outline: as §1

NCI-H596 = test system: NCI-H596
Outline: as §1

NCI-H650 = test system: NCI-H650
Outline: as §1

NCI-H727 = test system: NCI-H727
Outline: as §1

PC-3 [JPC-3] = test system: PC-3 [JPC-3]
Outline: as §1

O=C(O)c1ccc(-c2c[nH]c3ncc(-c4ccccc4)cc23)cc1C1CCCC1 + NC(=O)Nc1cc(-c2cccc(F)c2)sc1C(=O)N[C@H]1CCCNC1 [AZD7762] (partner 0.2 µM)
relative viability (201T; first compound 0.04 µM): 0.599
relative viability (201T; first compound 0.1265 µM): 0.654
relative viability (201T; first compound 0.4 µM): 0.664
relative viability (201T; first compound 1.265 µM): 0.663
relative viability (A-427; first compound 0.04 µM): 0.826
relative viability (A-427; first compound 0.1265 µM): 0.911
relative viability (A-427; first compound 0.4 µM): 0.893
relative viability (A-427; first compound 1.265 µM): 0.726
relative viability (ABC-1; first compound 0.04 µM): 0.726
relative viability (ABC-1; first compound 0.1265 µM): 0.965
relative viability (ABC-1; first compound 0.4 µM): 0.89
relative viability (ABC-1; first compound 1.265 µM): 0.837
relative viability (BEN; first compound 0.04 µM): 0.529
relative viability (BEN; first compound 0.1265 µM): 0.775
relative viability (BEN; first compound 0.4 µM): 0.698
relative viability (BEN; first compound 1.265 µM): 0.771
relative viability (CAL-12T; first compound 0.04 µM): 0.632
relative viability (CAL-12T; first compound 0.1265 µM): 0.698
relative viability (CAL-12T; first compound 0.4 µM): 0.629
relative viability (CAL-12T; first compound 1.265 µM): 0.671
relative viability (H3255; first compound 0.04 µM): 0.79
relative viability (H3255; first compound 0.1265 µM): 0.991
relative viability (H3255; first compound 0.4 µM): 0.953
relative viability (H3255; first compound 1.265 µM): 0.88
relative viability (LC-2-ad; first compound 0.04 µM): 0.853
relative viability (LC-2-ad; first compound 0.1265 µM): 0.926
relative viability (LC-2-ad; first compound 0.4 µM): 0.835
relative viability (LC-2-ad; first compound 1.265 µM): 0.812
relative viability (LCLC-97TM1; first compound 0.04 µM): 0.278
relative viability (LCLC-97TM1; first compound 0.1265 µM): 0.368
relative viability (LCLC-97TM1; first compound 0.4 µM): 0.302
relative viability (LCLC-97TM1; first compound 1.265 µM): 0.268
relative viability (NCI-H1651; first compound 0.04 µM): 0.326
relative viability (NCI-H1651; first compound 0.1265 µM): 0.56
relative viability (NCI-H1651; first compound 0.4 µM): 0.551
relative viability (NCI-H1651; first compound 1.265 µM): 0.426
relative viability (NCI-H1792; first compound 0.04 µM): 0.673
relative viability (NCI-H1792; first compound 0.1265 µM): 0.959
relative viability (NCI-H1792; first compound 0.4 µM): 0.94
relative viability (NCI-H1792; first compound 1.265 µM): 0.634
relative viability (NCI-H1915; first compound 0.04 µM): 0.681
relative viability (NCI-H1915; first compound 0.1265 µM): 0.64
relative viability (NCI-H1915; first compound 0.4 µM): 0.77
relative viability (NCI-H1915; first compound 1.265 µM): 0.764
relative viability (NCI-H1944; first compound 0.04 µM): 0.464
relative viability (NCI-H1944; first compound 0.1265 µM): 0.622
relative viability (NCI-H1944; first compound 0.4 µM): 0.637
relative viability (NCI-H1944; first compound 1.265 µM): 0.802
relative viability (NCI-H2087; first compound 0.04 µM): 1.29
relative viability (NCI-H2087; first compound 0.1265 µM): 1.44
relative viability (NCI-H2087; first compound 0.4 µM): 1.23
relative viability (NCI-H2087; first compound 1.265 µM): 1.11
relative viability (NCI-H441; first compound 0.04 µM): 1.01
relative viability (NCI-H441; first compound 0.1265 µM): 1.23
relative viability (NCI-H441; first compound 0.4 µM): 1.11
relative viability (NCI-H441; first compound 1.265 µM): 1.14
relative viability (NCI-H460; first compound 0.04 µM): 0.625
relative viability (NCI-H460; first compound 0.1265 µM): 0.822
relative viability (NCI-H460; first compound 0.4 µM): 0.886
relative viability (NCI-H460; first compound 1.265 µM): 0.794
relative viability (NCI-H596; first compound 0.04 µM): 1.05
relative viability (NCI-H596; first compound 0.1265 µM): 1.21
relative viability (NCI-H596; first compound 0.4 µM): 1.08
relative viability (NCI-H596; first compound 1.265 µM): 1.17
relative viability (NCI-H650; first compound 0.04 µM): 1.03
relative viability (NCI-H650; first compound 0.1265 µM): 1.11
relative viability (NCI-H650; first compound 0.4 µM): 1.02
relative viability (NCI-H650; first compound 1.265 µM): 0.947
relative viability (NCI-H727; first compound 0.04 µM): 0.459
relative viability (NCI-H727; first compound 0.1265 µM): 0.672
relative viability (NCI-H727; first compound 0.4 µM): 0.679
relative viability (NCI-H727; first compound 1.265 µM): 0.612
relative viability (PC-3 [JPC-3]; first compound 0.04 µM): 0.693
relative viability (PC-3 [JPC-3]; first compound 0.1265 µM): 0.967
relative viability (PC-3 [JPC-3]; first compound 0.4 µM): 0.806
relative viability (PC-3 [JPC-3]; first compound 1.265 µM): 0.766

Reference: the supplement of paper PMC10307832
